Laboratory results published in US20070275086A1, “Use of Increased Molecular-Weight Hirudin as an Anticoagulant in Extracorporeal Kidney Replace Therapy” (Max-Planck-Gesellschaft Zur Forderung Der Wissenschaften E.V, priority 1999, published 2007).
Several values for one entry are separate records, joined by “and”; a condition that tells them apart may be missing. Identical values can stand only once.

Tests used:
[1] = test system: blood platelets; conditions: human, in vivo
From the text: Patient one. […] Patient was anticoagulated with 6900 IU heparin.
The objective and subjective findings which point towards an HIT II condition were no longer evident after the changeover to anticoagulation with PEG-hirudin. The blood platelet counts, which had constantly shown values above 400/nl during the last dialyses under heparin, fell during the PEG-hirudin haemodialysis to the range from 320 to 350/nl; a trend towards continued normalisation was clearly demonstrable.
The patient was then transferred to PEG-hirudin.

[2] = test system: HIT II-positive patients; conditions: human, in vivo
Procedure: Patient was anticoagulated with 6900 IU heparin. […] The patient complained during dialysis and also in the dialysis-free intervals of problems relating to blood pressure and in some cases mild states of confusion. […] The average number of blood platelets before and after haemodialysis was between 350 and 400/nl.
The patient was transferred to PEG-hirudin according to the following dosage scheme: first haemodialysis: 0.1 mg/kg as a bolus, second to 10th haemodialysis: 0.05 mg/kg PEG hirudin, 11th haemodialysis and beyond: 0.025 mg/kg. […] The blood level of PEG hirudin fluctuated between 0.4 μg/ml before the start of haemodialysis and 1.0 μg/ml after dialysis. The filling volumes with the Type GFS plus 11 dialysers (GAMBRO) were as follows: under heparin application—the mean value for the last three heparin-anticoagulated dialyses was 87 ml; the filling volume during PEG-hirudin treatment for HD 5-HD 6 was 96 ml.
Creatinine clearance was less than 12 ml/min. The anticoagulant used during haemodialysis was un-fractionated heparin. Additionally, the dialysers (H120, Braun-Melsungen) were “primed” before the start of haemodialysis with 500 units of heparin. The patient received 3000 units of heparin as a bolus and 3000 units of heparin as an infusion during the 3.5 hour haemodialysis. […]

[3] = test system: HIT II antibodies
Procedure: Patient. […] Patient was anticoagulated with 6900 IU heparin. […] The patient complained during dialysis and also in the dialysis-free intervals of problems relating to blood pressure and in some cases mild states of confusion. […] The average number of blood platelets before and after haemodialysis was between 350 and 400/nl.
Creatinine clearance was less than 12 ml/min. The anticoagulant used during haemodialysis was un-fractionated heparin. Additionally, the dialysers (H120, Braun-Melsungen) were “primed” before the start of haemodialysis with 500 units of heparin. The patient received 3000 units of heparin as a bolus and 3000 units of heparin as an infusion during the 3.5 hour haemodialysis. […] The patient complained of tingling in the extremities, a feeling of restlessness and intermittent state of confusion. Between the dialysis sessions, the patient complained of headaches, malaise and loss of appetite. They stated that the people around them complained that they were irritable and seemed under stress.
This patient had been dialysed for 5 months initially with un-fractionated heparin, then with fractionated heparin (Enoxaparin). Enoxaparin was applied in a dose of 20 mg directly before the start of the dialysis. After an incorrect dialysis (rise in pressure before the dialyser) over the dialysis period of 4.5 h, an additional 10 mg Enoxaparin were applied via an indwelling infusion pump placed before the dialyser (F 50 S, Fresenius). The patient indicated severe shortness of breath, a decline in circulation and blood pressure to base values of 80/30 mmHg shortly after the start of haemodialysis.

[4] = Dialyser filling volume and clotting in the extracorporeal circuit at end of haemodialysis; format: in vivo, human
From the text: Following this, the patient was transferred to PEG-hirudin.

| Substance | blood platelets during haemodialysis, reduced down to [1] [nL⁻¹] | blood pressure base values shortly after the start of haemodialysis [2] | tests for HIT II antibodies (HIPA test and platelet-factor-4 ELISA) [3] | filling volume of dialyser ([4]; patient one, Type GFS plus 11 dialysers (GAMBRO), specified 100 ml, heparin: mean of last three dialyses, PEG-hirudin: HD 5-HD 6) [mL] | filling volume at the end of haemodialysis ([4]; patient two, H120 dialysers, heparin: last two haemodialyses, PEG-hirudin: after the 4th haemodialysis) | average number of blood platelets before and after haemodialysis [1] [nL⁻¹] | blood platelet counts [1] | fall in blood pressure at the start of haemodialysis [2] [mmHg] | HIT II-specific diagnosis (HIPA-test) [3] | tests for HIT-positive antibodies (HIPA and ELISA) [3] |
| --- | --- | --- | --- | --- | --- | --- | --- | --- | --- | --- |
| Enoxaparin | 100 | 80/30 | positive |  |  |  |  |  |  |  |
| heparin |  |  |  | 87 | 71 mL and 73 mL | 350 to 400 | above 400 /nl | 35 | positive result | strongly positive |
